Results: patent US7563771B2, “Synthetic single domain polypeptides mimicking apolipoprotein E” (UAB Research Foundation, priority 2002, dated 2009)
Peptide text beside a SMILES is read from it.

Assays:
[1] = Solubility of peptide and peptide:DMPC complexes
LDL from LDL-R null mice = assay: Association of 125I-labelled peptide with plasma lipoproteins (CLiP profile, radioactivity of fractions); assay type: binding, LDL-R null mouse
Description: Peptide [^125I]Ac-(R)18L-NH2 was mixed with plasma from an LDL-R null mouse at a proportion of 100 μg peptide:1 mL plasma. The plasma lipoprotein profile was determined using the CLiP method (Garber and Anantharamaiah, J. Lipid. Res., 2000), and fractions were collected for measurement of radioactivity. Thus, peptide:lipid complexes are good candidates for administration that would result in enhanced uptake of atherogenic lipoproteins. The effect of the single domain peptide of the invention should last longer than any dual domain peptide since lipid-associated peptide is helical and the backbone is not accessible for proteolytic cleavage (degradation). Thus, several slow-release formulations of peptides with lipids are tested to determine the optimal formulation for delivery.

[2] = Toxicity of intravenously administered peptide to mice; assay type: in vivo; conditions: 100 μg/mouse; for toxicity to mice, in words: intravenously
plasma cholesterol [3] = assay: Plasma cholesterol in dyslipidemic mouse models; assay type: in vivo; conditions: several dyslipidemic mouse models, dose-dependent manner
Description: These studies were carried out to assess the bioactivity of the single domain R-18L peptides in vivo and compare its activity with the known activity of a dual domain Apo-E derived peptide. In this case, the bioactivity refers to the activity of lowering serum cholesterol in a subject (e.g., in a transgenic mouse). In this example, the 18L peptide analogs were administered to dyslipidemic mice.

plasma cholesterol [4] = assay: Plasma cholesterol after intravenous injection into fasted apo E null mice; assay type: in vivo
Description: The peptides were dissolved in PBS pH=5.0. Control mice (n=5) received PBS pH=5.0. Data shown represent mean±SEM.
Effects on cholesterol levels of peptide Ac-(R)14L-NH2 analog 2 (at 100 μg/mouse), administered intravenously into fasted apo E null mice as free peptide or as peptide:DMPC complexes at two pH levels. n=5 in all cases is shown in FIG. 11. Peptides were dissolved in PBS at the pH shown. Data shown represent mean±SEM.
Blood samples were taken immediately before injection and at 2 minutes and at 5 hours after injection and measured for cholesterol. A control of only PBS was also measured. Total cholesterol in the blood samples was measured, and is expressed in FIG. 4 as mean±SEM. […] However, the reduction in plasma cholesterol was in the lipoproteins, including HDL. […] Feces were collected for 24 hours following injection of 100 μg of Ac-(R)18L-NH2:DMPC complexes (n=2) or PBS (n=5). Fecal sterols were extracted, and total cholesterol was determined manually (Sigma Infinity). […] Total feces were collected from individually-caged mice for 24 hours following intravenous injection of Ac-(R)18L-NH2 into apo E null mice at a dose of 100 μg/mouse. Total 24-hour fecal cholesterol was then calculated. Feces from each mouse were weighed, lyophilized, and then re-weighed. 100 mg dried feces was then homogenized, and total lipids were extracted. The dried extract was resuspended in isopropanol, and cholesterol was measured manually. Data shown in FIG. 6 are mean±SEM for control and mean±range for peptide.
This experiment is carried out to show the usefulness of the peptides of the invention in vivo for lowering serum cholesterol. Peptide or peptide-lipid complexes were administered intravenously to mice. After some time period (as specifically shown in various figures), plasma samples were obtained by performing a retro-orbital bleed of the animals. The samples were analyzed by the column lipoprotein profile as previously described (Garber, D. et al. J. Lipid Res. 2000, 41:1020-1026). Briefly, 5 to 10 μl of the plasma was analyzed using a single superose (Pharmacia, Piscataway, N.J.) column. Immediately following the column run, cholesterol reagent is introduced through a mixing tee, and the eluent:reagent mixture enters a post column reaction coil. Cholesterol content of the reaction mixture is determined at 500 nm spectrophotometrically and the data points are collected into a computer. The resulting profiles are decomposed into component peaks and analyzed for relative area using PeakFit® computer software (SPSS Science, Chicago, Ill.). Absolute cholesterol value for total cholesterol is determined by comparisons with control samples of known values. The results would show a decrease in serum cholesterol in the subjects that received the polypeptides of the invention.

HepG2 cells = assay: Uptake of 125I-LDL and 125I-VLDL by HepG2 cells in presence of peptide; assay type: cell-based
Description: These experiments were performed to test the bioactivity of the R-18L peptide in cell culture. […] Specifically, ^125I-LDL and ^125I-VLDL and the R-18L peptide were incubated with HepG2 cells in vitro for 2 hours to determine the cellular uptake of the iodinated compounds. […] H/H represent uptake of the lipoproteins in cells treated with heparinase/heparitinase. […] In case of VLDL, the peptide-mediated uptake appeared to be predominantly via an HSPG pathway. […] Examples of atherogenic lipoproteins are VLDL and LDL.
This experiment was carried out to follow the events subsequent to the binding of atherogenic lipoproteins to cultured cells. HepG2 cells (obtained from American Type Culture Collection (ATCC), Manassas, Va.) are used for determining peptide-mediated enhanced uptake of LDL or VLDL. Cells are grown in DMEM in six-well plates and used at 75% to 90% confluence. The seeding density of the cells that is used is 1.5-3.0×10^5 cells/ml. Cells are treated with DMEM containing lipoprotein-deficient serum (LPDS) 24 h prior to use to upregulate […] with the indicated concentration (0 to 50 μg of ^125I-LDL) at 4° C. for 2 h in presence or absence of peptides. Nonspecific binding is assessed in the presence of 50-fold excess of unlabelled LDL with or without peptides. After washing with ice-cold PBS, (containing 2 mg/ml BSA) to remove excess labeled lipoproteins, cells are incubated with excess dextran sulfate (4 mg/ml Pharmacia, Mr of 500,000) or heparin (Sigma Chemical Co., St. Louis, Mo., 10 mg/ml) for 1 h to release specifically bound ^125I-LDL. The counts in the dextran sulfate wash reflect the amount of LDL bound to cells. Cells are then washed with PBS and then dissolved in 0.1 N NaOH and a 0.5 ml aliquot of the cells suspension is counted. The counts reflect the amount of LDL internalized. The amount of protein is estimated using the Lowry method. Degradation of LDL is assessed by precipitating ^125I-LDL using 17% […] acid and incubating at 4° C. for 30 min. The precipitate is removed by centrifugation. The supernatant is treated with 10 μl of 40% KI and 40 μl of 10% hydrogen peroxide. The free ^125I is extracted with 2 ml chloroform. The upper aqueous layer is then counted for radioactivity. These counts represent the amount of monoiodi-tyrosine produced by the degradation of apo B in lipoproteins. Cell surface HSPG is removed by treating cells with heparinase and heparitinase (Sigma Chemical Co., St. Louis, Mo.) at a concentration of 3 u/ml of medium for 2 h at 37° C. In all cell experiments an average value of triplicate experiments are considered. Counts are detected inside the cultured cells and it is shown that LDL and VLDL are bound, internalized and degraded in the cultured cells in the presence of the peptide of the invention.

erythrocytes = assay: Hemolysis of erythrocytes (hemoglobin content of supernatant, absorbance at 540 nm); assay type: cell-based
Description: This example was performed to test the affect of amino acid residue changes on the lytic nature of peptides of the invention. Lysine residues, which resided on the polar face of the single domain peptide, were substituted with arginine and such altered peptides were tested for lytic ability. Similarly, in other peptides of the invention, lysine residues on the polar face of the single domain peptide of the invention were dimethylated. These altered peptides neutralized the hemolytic property of the 18 L peptide. A suspension of erythrocytes (10^6 cells/ml) in phosphate-buffered saline with and without peptide (10 ml of […] peptide solution) was incubated for 10 min at 37° C. Hemolysis was expressed as hemoglobin content (absorbance at 540 nm) of the supernatant after centrifugation at 16,000×g for 3 min. Hemoglobin content as measured in the presence of 0.1% Triton X-100 was taken as 100% hemolysis.

CC[C@H](C)[C@H](NC(=O)[C@H](Cc1ccccc1)NC(=O)[C@H](CCCNC(=N)N)NC(=O)[C@H](Cc1c[nH]c2ccccc12)NC(=O)[C@@H](NC(=O)[C@H](CO)NC(=O)CNC(=O)[C@H](Cc1ccc(O)cc1)NC(=O)[C@H](Cc1ccccc1)NC(=O)[C@H](CCCNC(=N)N)NC(=O)[C@H](CCCNC(=N)N)NC(C)=O)[C@@H](C)CC)C(=O)N[C@@H](CCCNC(=N)N)C(=O)N[C@@H](C)C(=O)N[C@@H](Cc1ccccc1)C(N)=O [Ac-(R)14L-NH2 analog 2] (Ac-RRFYGSIWRFIRAF-NH2)
solubility ([1]; pH=5.0): freely soluble | solubility ([1]; pH=7.4): only partially soluble | effect of DMPC on the suspension ([1]; pH=7.4, addition of DMPC at a 1:1 ratio (w/w)): completely clarified this suspension

Ac-GIRRFLGSIWRFIRAFYG-NH2 [R-18L]
counts per minute in VLDL peak (LDL from LDL-R null mice; FIG. 7, elution volume c. 12 mL): ~50 CPM | counts per minute in LDL peak (LDL from LDL-R null mice; FIG. 7, elution volume c. 16 mL): ~150 CPM | counts per minute in HDL peak (LDL from LDL-R null mice; FIG. 7, elution volume c. 18 mL): ~350 CPM | toxicity to mice, in words [2]: completely normal | reducing plasma cholesterol (plasma cholesterol [3]): effective in reducing plasma cholesterol | cholesterol reduction, dose dependency (plasma cholesterol [4]; 50 μg of peptide per mouse, i.v., 5 hours, limited to VLDL and IDL/LDL fractions (FIG. 5)): substantial reduction | reducing plasma cholesterol (plasma cholesterol [4]; 50 μg/mouse, i.v., PBS pH=5.0, fasting apo E null mice (FIG. 10)): effective in reducing plasma cholesterol | duration of plasma cholesterol reduction (plasma cholesterol [4]; 100 μg/mouse i.v. (FIG. 4)): maintained for at least five hours | reduction of plasma cholesterol (plasma cholesterol [4]; 100 μg/mouse i.v., within two minutes, versus basal level (FIG. 4)): approximately 90% | lowering plasma cholesterol in apo E(−) mice compared with dual domain peptide (plasma cholesterol [4]; apo E(−) mice): more effectively than the dual domain peptide | uptake of LDL by HepG2 cells (HepG2 cells; 125I-LDL, 2 hours incubation): effective in enhancing the uptake | uptake of VLDL by HepG2 cells (HepG2 cells; 125I-VLDL, 2 hours incubation): effective in enhancing the uptake | enhanced uptake of VLDL in cells treated with heparinase/heparitinase (H/H) (HepG2 cells; HepG2 cells, H/H treated): completely abrogated | uptake of LDL in cells treated with heparinase/heparitinase (H/H) (HepG2 cells; HepG2 cells, H/H treated): significant enhancement of uptake

GIKKFLGSIWKFIKAFVG [18L, reference compound]
hemolysis (lytic) (erythrocytes): 80% | hemolysis / cell lysis, in words (erythrocytes): caused marked hemolysis | mice that died [2]: four out of six | toxicity to mice, in words [2]: highly toxic

GIRRFYGSIWRFIR (Ac-GIRRFYGSIWRFIR-NH2) [Ac-(R)14L-NH2 analog 1]
reducing plasma cholesterol (plasma cholesterol [4]; free peptide, 100 μg/mouse, i.v., PBS pH=5, fasting apo E null mice (FIG. 10)): not effective
